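All cell lines were grown in 96-well plates and treated with compound for 48 hours. GI50 = concentration required for 50% inhibition of growth.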 Calls of active or inactive are those of the source. Cut-off read from the data, not from the text of the source: active = GI50 up to about 1.1 µM and inactive = higher.
How the values were obtained:
Experiment in all cases: DTP human tumour cell line panel, 48 h
UO-31 = tested on: UO-31
EKVX = tested on: EKVX
SF-295 = tested on: SF-295
UACC-257 = tested on: UACC-257
A498 = tested on: A498
K562 = tested on: K562
NCI-H23 = tested on: NCI-H23
HOP-62 = tested on: HOP-62
CAKI-1 = tested on: CAKI-1
OVCAR-4 = tested on: OVCAR-4
PC-3 = tested on: PC-3
UACC-62 = tested on: UACC-62
786-0 = tested on: 786-0
HCT-15 = tested on: HCT-15
SF-268 = tested on: SF-268
HL-60 = tested on: HL-60
HOP-92 = tested on: HOP-92
Hs-578T = tested on: Hs-578T
BT-549 = tested on: BT-549

Row | SMILES | GI50 (UO-31) | GI50 (EKVX) | GI50 (SF-295) | GI50 (UACC-257) | GI50 (A498) | GI50 (K562) | GI50 (NCI-H23) | GI50 (HOP-62) | GI50 (CAKI-1) | GI50 (OVCAR-4) | GI50 (PC-3) | GI50 (UACC-62) | GI50 (786-0) | GI50 (HCT-15) [µM] | GI50 (SF-268) | GI50 (HL-60) | GI50 (HOP-92) | GI50 (Hs-578T) | GI50 (BT-549)
1 | Cc1ccc2c(c1)Nc1ccccc1P2(=O)O | > 100 µM (inactive) | > 100 µM (inactive) | > 100 µM (inactive) | > 100 µM (inactive) | > 100 µM (inactive) | > 100 µM (inactive) | > 100 µM (inactive) | > 100 µM (inactive) | > 100 µM (inactive) | > 100 µM (inactive) | > 100 µM (inactive) | > 100 µM (inactive) | > 100 µM (inactive) | > 100 | > 100 µM (inactive) | > 100 µM (inactive) | > 100 µM (inactive) |  | 
2 | COP(=O)(OC)/C(=C\C1=CN(C(c2ccccc2)(c2ccccc2)c2ccccc2)CN1)NC=O | 15 µM (inactive) |  | 16.4 µM (inactive) | 18.9 µM (inactive) | 17.9 µM (inactive) | 25.3 µM (inactive) | 18.2 µM (inactive) | 16.5 µM (inactive) | 16.6 µM (inactive) | 16.3 µM (inactive) | 6.44 µM (inactive) |  |  | 16.6 |  | 18.9 µM (inactive) | 10.3 µM (inactive) | 23.3 µM (inactive) | 
3 | COCOc1c(C(O[Si](C)(C)C(C)(C)C)c2cnc(Sc3ccccc3)n2C)ccc(OC)c1OC (stereo unspecified) | 1.83 µM (inactive) | 2.53 µM (inactive) | 2.65 µM (inactive) | 2.25 µM (inactive) |  | 2.75 µM (inactive) | > 100 µM (inactive) | 1.66 µM (inactive) | 3.03 µM (inactive) | 3 µM (inactive) | 1.55 µM (inactive) | 1.65 µM (inactive) | 1.82 µM (inactive) | 1.94 | 1.64 µM (inactive) | 1.87 µM (inactive) | 2.13 µM (inactive) | 2.31 µM (inactive) | 1.69 µM (inactive)
4 | C1=CC(=NN=P(c2ccccc2)(c2ccccc2)c2ccccc2)C=C1 | > 100 µM (inactive) | > 100 µM (inactive) |  | > 100 µM (inactive) |  | 64 µM (inactive) | > 100 µM (inactive) | > 100 µM (inactive) | > 100 µM (inactive) | > 100 µM (inactive) |  | > 100 µM (inactive) | > 100 µM (inactive) | > 100 | > 100 µM (inactive) | 98.2 µM (inactive) | 55.2 µM (inactive) |  | 
5 | C=CCNC(=O)NNC(O)(C(=O)OCC)C(F)(F)F (stereo unspecified) | > 100 µM (inactive) | > 100 µM (inactive) |  | > 100 µM (inactive) | > 100 µM (inactive) | > 100 µM (inactive) | > 100 µM (inactive) | > 100 µM (inactive) | > 100 µM (inactive) | > 100 µM (inactive) | > 100 µM (inactive) |  | > 100 µM (inactive) | > 100 | > 100 µM (inactive) | > 100 µM (inactive) | > 100 µM (inactive) | > 100 µM (inactive) | 
6 | CC[N+](CC)(CC)/C(=N\S(=O)(=O)c1ccc(Cl)cc1)[N-]S(=O)(=O)c1cc(C)c(Cl)cc1S | > 100 µM (inactive) | > 100 µM (inactive) | 47 µM (inactive) | > 100 µM (inactive) | 41.9 µM (inactive) | 6.65 µM (inactive) | 85.9 µM (inactive) | 52 µM (inactive) | > 100 µM (inactive) | 65.5 µM (inactive) | 55.8 µM (inactive) |  | > 100 µM (inactive) | 66.7 | > 100 µM (inactive) | 53.8 µM (inactive) | 24.9 µM (inactive) | > 100 µM (inactive) | 
7 | Cc1ccc(/N=N/c2c(O)ccc3cc(S(=O)(=O)O)ccc23)cc1 | > 100 µM (inactive) | 29.6 µM (inactive) | > 100 µM (inactive) | > 100 µM (inactive) |  | > 100 µM (inactive) | > 100 µM (inactive) | > 100 µM (inactive) | 23.9 µM (inactive) | > 100 µM (inactive) | > 100 µM (inactive) | > 100 µM (inactive) | 12.6 µM (inactive) | > 100 | 85.5 µM (inactive) |  | > 100 µM (inactive) | > 100 µM (inactive) | > 100 µM (inactive)
8 | C[C@]12C[C@@H](OC(=O)[C@]1(C)O)[C@@H]([C@]1(O)CC[C@H]3[C@@H]4C[C@H]5O[C@]56C[C@H]5O[C@H]5C(=O)[C@]6(C)[C@H]4CC[C@@]31C)C2 | > 50 µM (inactive) | > 50 µM (inactive) | > 50 µM (inactive) | > 50 µM (inactive) | > 50 µM (inactive) | > 50 µM (inactive) | > 50 µM (inactive) | > 50 µM (inactive) | > 50 µM (inactive) | 27.5 µM (inactive) | > 50 µM (inactive) | > 50 µM (inactive) | > 50 µM (inactive) | > 50 | > 50 µM (inactive) | > 50 µM (inactive) | > 50 µM (inactive) | > 50 µM (inactive) | 

Reference: ChEMBL document CHEMBL1201862, “PubChem BioAssay data set” (2004)
